Source: patent US20100029609A1 (priority 2006, published 2010)

Target: T1, human S1P1 receptors (Homo sapiens, UniProt P21453)
T1 construct: expressed in transfected cells; host or cells: HeLa (human cervix carcinoma, ATCC CCL2), HeLa-S1P1/Gα16 cell clone 1
Test: Human S1P Receptor Calcium FLIPR Antagonist Assay, HeLa Gα16 S1P1
Format: cell-based
Conditions: HeLa-S1P1/Gα16 cells; antagonism of Ca2+ signal of probing agonist GNF-AC-1 at EC80
From the text: Human S1P Receptor Calcium FLIPR Antagonist Assays
The assay measures intracellular changes of Ca^2+ mediated by the synthetic probing agonist 3-{[2-(2-Trifluoromethyl-biphenyl-4-yl)-benzo[b]thiophen-5-ylmethyl]-amino}-propionic acid (GNF-AC-1) in the HeLa-S1P1/Gα16 cell clone 1: HeLa (human cervix carcinoma, ATCC CCL2) cells stably expressing N-terminally myc-tagged human S1P1 receptors (GenBank™ accession No. NM_001400; UNIPROT P21453) and promiscuous Gα16 protein (GenBank™ accession number M63904, Swissprot P30679) are cultured at 37° C., 5% CO2, and 95% relative humidity. The cells are plated in 384 well black plates (10,000 cells per well). After 24 hours the cells are loaded with Fluo4-AM (1.6 μM in HBSS and 2.5 mM probenicid) for 1 hour at 37° C. After washing, the cells are transferred to the FLIPR. The test compounds are added at different concentrations (≦30 μM) in HBSS in the presence of 0.1% BSA and changes in fluorescence are recorded (indication of agonism). The probing agonist is added 15 minutes afterwards to the wells at a concentration giving 80% of the maximal activity (EC80). After each addition time points are collected as follows: 20 time points (2 seconds) before the addition of the agonist (Fmin) and 60 time points (1 or 2 seconds) after the addition of the probing agonist. This allows the determination of the maximal fluorescence (Fmax). The ratio (Fmax-Fmin)/Fmin is plotted against the log of the concentration of the test compounds and the IC50 (relative antagonism) is determined with the help of XLfit-4 software. […] A dose response curve of the probing agonist is determined on each plate in parallel. The compounds of the invention are typically active in this assay at a concentration ranging typically from <1 nM to 30 μM, usually from less than 1 nanomolar to 1 micromolar.

T1 sequence (P21453 whole entry): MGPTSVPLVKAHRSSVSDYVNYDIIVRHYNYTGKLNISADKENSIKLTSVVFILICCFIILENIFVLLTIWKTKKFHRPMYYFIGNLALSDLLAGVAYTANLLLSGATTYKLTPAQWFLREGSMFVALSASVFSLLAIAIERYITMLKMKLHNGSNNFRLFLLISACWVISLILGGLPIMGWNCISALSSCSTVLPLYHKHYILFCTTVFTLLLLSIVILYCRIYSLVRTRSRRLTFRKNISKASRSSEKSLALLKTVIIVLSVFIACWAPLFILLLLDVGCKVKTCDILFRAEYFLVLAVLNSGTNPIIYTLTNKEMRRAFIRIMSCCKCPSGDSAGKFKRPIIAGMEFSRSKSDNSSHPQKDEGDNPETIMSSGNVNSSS

Structure (SMILES)	IC50
Cc1cc(S(=O)(=O)Nc2cccc(-c3cc(C)c(C(=O)N[C@H](CO)C(=O)O)c(C)c3)c2)c(C)cc1Cl [Example 133, (R)-2-{[3′-(4-Chloro-2,5-dimethyl-benzenesulfonylamino)-3,5-dimethyl-biphenyl-4-carbonyl]-amino}-3-hydroxy-propionic acid]	3.5 nM
Cc1cc(S(=O)(=O)Nc2cccc(-c3ccc(C(=O)NCc4nnn[nH]4)c(C)c3)c2)c(C)cc1Cl [Example 66, 3′-(4-Chloro-2,5-dimethyl-benzenesulfonylamino)-3-methyl-biphenyl-4-carboxylic acid (1H-tetrazol-5-ylmethyl)-amide]	5.5 nM
Cc1cc(S(=O)(=O)Nc2cccc(-c3ccc(C(=O)NC4(C(=O)O)CNC4)c(C)c3)c2)c(C)cc1Cl [Example 51, 3-{[3′-(4-Chloro-2,5-dimethyl-benzenesulfonylamino)-3-methyl-biphenyl-4-carbonyl]-amino}-azetidine-3-carboxylic acid]	3 nM
Cc1cc(S(=O)(=O)Nc2cccc(-c3cc(C)c(C(=O)NC4(C(=O)O)CN(C(=O)OC(C)(C)C)C4)c(C)c3)c2)c(C)cc1Cl [Example 144, 3-{[3′-(4-Chloro-2,5-dimethyl-benzenesulfonylamino)-3,5-dimethyl-biphenyl-4-carbonyl]-amino}-azetidine-1,3-dicarboxylic acid mono-tert-butyl ester]	4 nM
Cc1cc(S(=O)(=O)Nc2cccc(-c3ccc(C(=O)N[C@@H](CO)C(=O)O)cc3)c2)c(C)cc1Cl [Example 28]	2.8 nM
Cc1cc(S(=O)(=O)Nc2cccc(-c3ccc(C(=O)N[C@@H](COC(C)(C)C)C(=O)O)c(C)c3)c2)c(C)cc1Cl [Example 48, (S)-3-tert-Butoxy-2-{[3′-(4-chloro-2,5-dimethyl-benzenesulfonylamino)-3-methyl-biphenyl-4-carbonyl]-amino}-propionic acid]	9 nM
Cc1cc(S(=O)(=O)Nc2cccc(-c3ccc(C(=O)N[C@@H](C)C(=O)O)cc3)c2)c(C)cc1Cl [Example 25, (S)-2-{[3′-(4-Chloro-2,5-dimethyl-benzenesulfonylamino)-biphenyl-4-carbonyl]-amino}-propionic acid]	8.8 nM
Cc1cc(S(=O)(=O)Nc2cccc(-c3cc(C)c(C(=O)NC4(C(=O)O)CCN(C)CC4)c(C)c3)c2)c(C)cc1Cl [Example 155, 4-{[3′-(4-Chloro-2,5-dimethyl-benzenesulfonylamino)-3,5-dimethyl-biphenyl-4-carbonyl]-amino}-1-methyl-piperidine-4-carboxylic acid]	2 nM
Cc1cc(S(=O)(=O)Nc2cccc(-c3ccc(C(=O)N(C)[C@@H](CO)C(=O)O)cc3)c2)c(C)cc1Cl [Example 85, (S)-2-{[3′-(4-Chloro-2,5-dimethyl-benzenesulfonylamino)-biphenyl-4-carbonyl]-methyl-amino}-3-hydroxy-propionic acid]	1.7 nM
Cc1cc(S(=O)(=O)Nc2cccc(-c3ccc(C(=O)NC4(C(=O)O)CN(C)C4)c(C)c3)c2)c(C)cc1Cl [Example 55, 3-{[3′-(4-Chloro-2,5-dimethyl-benzenesulfonylamino)-3-methyl-biphenyl-4-carbonyl]-amino}-1-methyl-azetidine-3-carboxylic acid]	5 nM
COC[C@H](NC(=O)c1c(C)cc(-c2cccc(NS(=O)(=O)c3cc(C)c(Cl)cc3C)c2)cc1C)C(=O)O [Example 136, (S)-2-{[3′-(4-Chloro-2,5-dimethyl-benzenesulfonylamino)-3,5-dimethyl-biphenyl-4-carbonyl]-amino}-3-methoxy-propionic acid]	1.7 nM
Cc1cc(S(=O)(=O)Nc2cccc(-c3cc(C)c(C(=O)NC(C)(C)C(=O)O)c(C)c3)c2)c(C)cc1Cl [Example 148, 2-{[3′-(4-Chloro-2,5-dimethyl-benzenesulfonylamino)-3,5-dimethyl-biphenyl-4-carbonyl]-amino}-2-methyl-propionic acid]	5 nM
Cc1cc(S(=O)(=O)Nc2cccc(-c3cc(C)c(C(=O)NC4(C(=O)O)CC4)c(C)c3)c2)c(C)cc1Cl [Example 149, 1-{[3′-(4-Chloro-2,5-dimethyl-benzenesulfonylamino)-3,5-dimethyl-biphenyl-4-carbonyl]-amino}-cyclopropanecarboxylic acid]	1.7 nM

Continued, values first:

IC50	Structure (SMILES)
1.1 nM	Cc1cc(S(=O)(=O)Nc2cccc(-c3cc(C)c(C(=O)N(C)[C@@H](C)C(=O)O)c(C)c3)c2)c(C)cc1Cl [Example 139, (S)-2-{[3′-(4-Chloro-2,5-dimethyl-benzenesulfonylamino)-3,5-dimethyl-biphenyl-4-carbonyl]-methyl-amino}-propionic acid]
1.1 nM	Cc1cc(S(=O)(=O)Nc2cccc(-c3ccc(C(=O)N[C@@H](CO)C(=O)O)c(C)c3)c2)c(C)cc1Cl [Example 45, (S)-2-{[3′-(4-Chloro-2,5-dimethyl-benzenesulfonylamino)-3-methyl-biphenyl-4-carbonyl]-amino}-3-hydroxy-propionic acid]
1.3 nM	Cc1cc(S(=O)(=O)Nc2cccc(-c3ccc(C(=O)NCC(=O)O)c(C)c3)c2)c(C)cc1Cl [Example 64, {[3′-(4-Chloro-2,5-dimethyl-benzenesulfonylamino)-3-methyl-biphenyl-4-carbonyl]-amino}-acetic acid]
1.3 nM	Cc1cc(S(=O)(=O)Nc2cccc(-c3ccc(C(=O)N[C@@H](C)C(=O)O)c(C)c3)c2)c(C)cc1Cl [Example 63, (S)-2-{[3′-(4-Chloro-2,5-dimethyl-benzenesulfonylamino)-3-methyl-biphenyl-4-carbonyl]-amino}-propionic acid]
1.7 nM	CCc1cc(-c2cccc(NS(=O)(=O)c3cc(C)c(Cl)cc3C)c2)ccc1C(=O)N[C@@H](C)C(=O)O [Example 154, (S)-2-{[3′-(4-Chloro-2,5-dimethyl-benzenesulfonylamino)-3-ethyl-biphenyl-4-carbonyl]-amino}-propionic acid]
1.1 nM	Cc1cc(S(=O)(=O)Nc2cccc(-c3cc(C)c(C(=O)N(C)[C@@H](CO)C(=O)O)c(C)c3)c2)c(C)cc1Cl [Example 138, (S)-2-{[3′-(4-Chloro-2,5-dimethyl-benzenesulfonylamino)-3,5-dimethyl-biphenyl-4-carbonyl]-methyl-amino}-3-hydroxy-propionic acid]
0.5 nM	CC[C@H](NC(=O)c1ccc(-c2cccc(NS(=O)(=O)c3cc(C)c(Cl)cc3C)c2)cc1C)C(=O)O [Example 62, (S)-2-{[3′-(4-Chloro-2,5-dimethyl-benzenesulfonylamino)-3-methyl-biphenyl-4-carbonyl]-amino}-butyric acid]
